Data as given in ChEMBL document CHEMBL5465560, “Selectivity Literature for EUbOPEN Chemogenomic Library” (2024).

Experiments:
[1] = target: Tyrosine-protein kinase Fer (Homo sapiens) (UniProt P16591); assay: Selectivity interaction (Kinase screening (Nanosyn)) EUB0000604a FER
[2] = target: Cyclin-dependent kinase 19 (Homo sapiens) (UniProt Q9BWU1); assay: Selectivity interaction (KinomeScan (DiscoverX)) EUB0001049a CDK19; conditions: at 1 µM
[3] = target: Ribosomal protein S6 kinase alpha-3 (Homo sapiens, UniProt P51812); assay: Selectivity interaction (ActivX KiNativ screen (kinase selectivity in THP-1 cell lysates)) EUB0000639a RPS6KA3; assay type: subcellular; conditions: lysate, at 1 µM
[4] = target: Phosphatidylinositol 3-kinase catalytic subunit type 3 (Homo sapiens, UniProt Q8NEB9); assay: Selectivity interaction (Kinase panel (ADP-Glow assay)) EUB0000877a PIK3C3
[5] = target: Protein kinase C alpha type (Homo sapiens, UniProt P17252); assay: Selectivity interaction (Kinase panel (Z-LYTE Assay)) EUB0001632a PRKCA; conditions: at 10 µM
[6] = target: LIM domain kinase 1 (Homo sapiens) (UniProt P53667); conditions: at 10 µM
[7] = target: MAP/microtubule affinity-regulating kinase 3 (Homo sapiens) (UniProt P27448); assay: Selectivity interaction (KinomeScan (DiscoverX)) EUB0000595a MARK3; conditions: at 10 µM
[8] = target: Serine/threonine-protein kinase VRK2 (Homo sapiens) (UniProt Q86Y07); assay: Selectivity interaction (ProQinase) EUB0000171b VRK2
[9] = target: Dual specificity mitogen-activated protein kinase kinase 2 (Homo sapiens) (UniProt P36507); assay: Selectivity interaction (KinomeScan (DiscoverX)) EUB0000092b MAP2K2; conditions: at 10 µM
[10] = target: Ephrin type-A receptor 7 (Homo sapiens) (UniProt Q15375); assay: Selectivity interaction (Upstate Kinase Profiler service (Millipore)) EUB0000056c EPHA7; conditions: at 1 µM
[11] = target: Epidermal growth factor receptor (Homo sapiens, UniProt P00533); assay: Selectivity interaction (Upstate Kinase Profiler service (Millipore)) EUB0000056c EGFR; conditions: at 1 µM
[12] = target: Wee1-like protein kinase (Homo sapiens) (UniProt P30291); assay: Selectivity interaction (KinomeScan (DiscoverX)) EUB0000045b WEE1
[13] = target: T1, Dual specificity mitogen-activated protein kinase kinase 4 (Homo sapiens) (UniProt P45985); assay: Selectivity interaction (ActivX KiNativ screen (ex vivo kinase selectivity in human PBMCs)) EUB0001619a MAP2K4; assay type: cell-based; conditions: PBMC, at 1 µM
T1 sequence (whole entry): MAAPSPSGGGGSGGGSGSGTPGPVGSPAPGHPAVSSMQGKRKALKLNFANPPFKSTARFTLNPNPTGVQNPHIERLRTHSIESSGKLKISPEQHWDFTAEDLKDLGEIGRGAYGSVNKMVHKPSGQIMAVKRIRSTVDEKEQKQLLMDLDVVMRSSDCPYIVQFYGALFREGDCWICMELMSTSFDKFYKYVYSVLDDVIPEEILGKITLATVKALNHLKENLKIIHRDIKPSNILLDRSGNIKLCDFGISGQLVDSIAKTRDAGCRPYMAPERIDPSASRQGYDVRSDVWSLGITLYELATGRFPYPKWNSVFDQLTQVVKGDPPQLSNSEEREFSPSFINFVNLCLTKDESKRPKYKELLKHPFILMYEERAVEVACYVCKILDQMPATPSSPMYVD

[14] = target: Ribosomal protein S6 kinase alpha-4 (Homo sapiens) (UniProt O75676); assay: Selectivity interaction (KinomeScan (DiscoverX)) EUB0000618a RPS6KA4; conditions: at 10 µM
[15] = target: T2, Tyrosine-protein kinase Mer (Homo sapiens) (UniProt Q12866); assay: Selectivity interaction (KinomeScan (DiscoverX)) EUB0000618a MERTK; conditions: at 10 µM
T2 sequence (whole entry): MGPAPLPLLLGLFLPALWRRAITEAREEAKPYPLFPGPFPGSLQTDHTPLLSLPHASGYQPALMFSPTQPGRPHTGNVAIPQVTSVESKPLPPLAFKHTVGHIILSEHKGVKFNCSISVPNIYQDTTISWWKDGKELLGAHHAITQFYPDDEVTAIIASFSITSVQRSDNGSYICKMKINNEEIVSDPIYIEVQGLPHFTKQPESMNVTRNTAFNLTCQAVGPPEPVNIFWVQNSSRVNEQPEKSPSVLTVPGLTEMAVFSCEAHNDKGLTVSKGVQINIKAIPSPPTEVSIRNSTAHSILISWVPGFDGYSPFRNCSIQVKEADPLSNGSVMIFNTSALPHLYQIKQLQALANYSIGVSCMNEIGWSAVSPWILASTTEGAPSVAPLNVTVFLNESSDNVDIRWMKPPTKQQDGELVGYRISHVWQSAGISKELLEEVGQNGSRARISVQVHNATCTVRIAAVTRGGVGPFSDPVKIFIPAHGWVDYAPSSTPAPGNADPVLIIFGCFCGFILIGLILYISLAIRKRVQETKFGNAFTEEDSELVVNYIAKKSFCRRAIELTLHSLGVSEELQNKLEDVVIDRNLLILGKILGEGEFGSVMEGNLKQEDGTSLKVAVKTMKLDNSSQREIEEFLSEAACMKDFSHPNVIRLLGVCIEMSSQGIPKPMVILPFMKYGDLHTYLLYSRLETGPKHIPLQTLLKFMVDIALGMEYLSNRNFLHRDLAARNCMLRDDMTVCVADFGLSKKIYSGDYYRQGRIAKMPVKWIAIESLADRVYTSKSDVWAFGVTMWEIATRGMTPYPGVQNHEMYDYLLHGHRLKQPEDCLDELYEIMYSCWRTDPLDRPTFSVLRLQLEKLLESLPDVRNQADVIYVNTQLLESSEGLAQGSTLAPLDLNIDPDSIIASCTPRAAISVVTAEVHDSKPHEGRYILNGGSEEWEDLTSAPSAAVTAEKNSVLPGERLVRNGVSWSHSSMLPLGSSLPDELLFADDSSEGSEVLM

[16] = target: T3, Serine/threonine-protein kinase 3 (Homo sapiens) (UniProt Q13188); assay: Selectivity interaction (KinomeScan (DiscoverX)) EUB0000666a STK3; conditions: at 10 µM
T3 sequence (whole entry): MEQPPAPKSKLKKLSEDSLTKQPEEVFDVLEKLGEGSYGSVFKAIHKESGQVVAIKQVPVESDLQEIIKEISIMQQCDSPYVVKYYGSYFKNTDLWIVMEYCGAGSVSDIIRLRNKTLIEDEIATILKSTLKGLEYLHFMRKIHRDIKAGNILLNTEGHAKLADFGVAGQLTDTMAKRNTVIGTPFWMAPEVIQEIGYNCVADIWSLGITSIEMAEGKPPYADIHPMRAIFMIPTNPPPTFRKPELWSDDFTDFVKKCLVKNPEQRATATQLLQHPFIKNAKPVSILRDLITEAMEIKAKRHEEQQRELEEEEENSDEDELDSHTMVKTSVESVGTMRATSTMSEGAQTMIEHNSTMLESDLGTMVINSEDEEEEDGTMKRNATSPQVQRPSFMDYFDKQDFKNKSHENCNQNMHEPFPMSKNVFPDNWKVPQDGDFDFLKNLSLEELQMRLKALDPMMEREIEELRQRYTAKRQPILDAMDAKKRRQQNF

Sequence of Wee1-like protein kinase (Homo sapiens) (P30291 whole entry, looked up): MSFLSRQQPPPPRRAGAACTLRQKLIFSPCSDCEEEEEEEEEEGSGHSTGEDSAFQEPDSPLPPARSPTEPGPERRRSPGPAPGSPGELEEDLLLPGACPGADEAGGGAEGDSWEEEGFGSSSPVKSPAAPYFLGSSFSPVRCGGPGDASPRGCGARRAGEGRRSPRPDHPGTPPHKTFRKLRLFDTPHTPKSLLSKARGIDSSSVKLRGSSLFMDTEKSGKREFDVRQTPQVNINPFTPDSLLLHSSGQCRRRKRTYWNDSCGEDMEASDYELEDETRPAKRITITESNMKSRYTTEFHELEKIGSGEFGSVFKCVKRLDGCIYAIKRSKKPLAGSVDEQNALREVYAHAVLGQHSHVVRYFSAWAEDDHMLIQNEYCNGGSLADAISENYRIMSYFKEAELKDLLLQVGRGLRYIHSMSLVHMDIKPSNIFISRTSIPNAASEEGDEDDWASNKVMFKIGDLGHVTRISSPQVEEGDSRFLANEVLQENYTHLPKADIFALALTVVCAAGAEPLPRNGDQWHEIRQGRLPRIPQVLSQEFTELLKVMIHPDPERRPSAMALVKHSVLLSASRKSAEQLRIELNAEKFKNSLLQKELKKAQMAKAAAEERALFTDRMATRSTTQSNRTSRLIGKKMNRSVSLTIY
Sequence of Serine/threonine-protein kinase VRK2 (Homo sapiens) (Q86Y07 whole entry): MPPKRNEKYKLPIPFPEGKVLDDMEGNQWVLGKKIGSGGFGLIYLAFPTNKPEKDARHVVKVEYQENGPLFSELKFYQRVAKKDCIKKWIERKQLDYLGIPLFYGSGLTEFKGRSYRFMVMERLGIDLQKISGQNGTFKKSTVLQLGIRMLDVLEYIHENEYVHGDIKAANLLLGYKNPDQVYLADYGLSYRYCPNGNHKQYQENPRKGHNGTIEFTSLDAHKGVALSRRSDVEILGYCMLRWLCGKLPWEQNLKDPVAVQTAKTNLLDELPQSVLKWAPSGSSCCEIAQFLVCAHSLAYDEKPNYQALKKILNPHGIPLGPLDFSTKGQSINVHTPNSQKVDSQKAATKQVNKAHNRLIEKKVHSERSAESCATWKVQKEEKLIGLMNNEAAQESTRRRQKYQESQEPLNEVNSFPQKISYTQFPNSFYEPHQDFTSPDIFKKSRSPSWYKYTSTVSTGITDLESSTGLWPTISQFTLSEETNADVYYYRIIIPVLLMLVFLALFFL
Sequence of Phosphatidylinositol 3-kinase catalytic subunit type 3 (Q8NEB9 whole entry): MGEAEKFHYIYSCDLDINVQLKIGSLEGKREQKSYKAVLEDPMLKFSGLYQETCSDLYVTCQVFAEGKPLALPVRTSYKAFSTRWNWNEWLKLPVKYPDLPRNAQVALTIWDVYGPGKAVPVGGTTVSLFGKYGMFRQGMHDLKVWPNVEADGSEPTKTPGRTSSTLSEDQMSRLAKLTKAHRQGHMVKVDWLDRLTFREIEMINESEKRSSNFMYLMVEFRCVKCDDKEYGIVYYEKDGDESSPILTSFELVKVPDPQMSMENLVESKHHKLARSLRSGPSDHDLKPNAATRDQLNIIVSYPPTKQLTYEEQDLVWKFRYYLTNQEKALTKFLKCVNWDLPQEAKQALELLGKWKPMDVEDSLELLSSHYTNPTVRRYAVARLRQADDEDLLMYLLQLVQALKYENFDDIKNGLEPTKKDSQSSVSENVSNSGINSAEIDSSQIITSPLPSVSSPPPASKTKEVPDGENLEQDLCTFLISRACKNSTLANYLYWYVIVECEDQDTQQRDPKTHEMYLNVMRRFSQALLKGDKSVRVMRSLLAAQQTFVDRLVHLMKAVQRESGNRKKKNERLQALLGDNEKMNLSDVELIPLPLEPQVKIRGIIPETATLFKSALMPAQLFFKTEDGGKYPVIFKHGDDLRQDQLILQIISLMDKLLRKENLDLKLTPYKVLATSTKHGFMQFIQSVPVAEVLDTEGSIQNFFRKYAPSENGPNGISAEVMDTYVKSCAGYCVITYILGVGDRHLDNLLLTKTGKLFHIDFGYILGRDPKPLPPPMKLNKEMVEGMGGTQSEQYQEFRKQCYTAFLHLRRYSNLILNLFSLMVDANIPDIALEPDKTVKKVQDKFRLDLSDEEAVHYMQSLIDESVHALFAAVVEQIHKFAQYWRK
Sequence of Ribosomal protein S6 kinase alpha-4 (Homo sapiens) (O75676 whole entry, looked up): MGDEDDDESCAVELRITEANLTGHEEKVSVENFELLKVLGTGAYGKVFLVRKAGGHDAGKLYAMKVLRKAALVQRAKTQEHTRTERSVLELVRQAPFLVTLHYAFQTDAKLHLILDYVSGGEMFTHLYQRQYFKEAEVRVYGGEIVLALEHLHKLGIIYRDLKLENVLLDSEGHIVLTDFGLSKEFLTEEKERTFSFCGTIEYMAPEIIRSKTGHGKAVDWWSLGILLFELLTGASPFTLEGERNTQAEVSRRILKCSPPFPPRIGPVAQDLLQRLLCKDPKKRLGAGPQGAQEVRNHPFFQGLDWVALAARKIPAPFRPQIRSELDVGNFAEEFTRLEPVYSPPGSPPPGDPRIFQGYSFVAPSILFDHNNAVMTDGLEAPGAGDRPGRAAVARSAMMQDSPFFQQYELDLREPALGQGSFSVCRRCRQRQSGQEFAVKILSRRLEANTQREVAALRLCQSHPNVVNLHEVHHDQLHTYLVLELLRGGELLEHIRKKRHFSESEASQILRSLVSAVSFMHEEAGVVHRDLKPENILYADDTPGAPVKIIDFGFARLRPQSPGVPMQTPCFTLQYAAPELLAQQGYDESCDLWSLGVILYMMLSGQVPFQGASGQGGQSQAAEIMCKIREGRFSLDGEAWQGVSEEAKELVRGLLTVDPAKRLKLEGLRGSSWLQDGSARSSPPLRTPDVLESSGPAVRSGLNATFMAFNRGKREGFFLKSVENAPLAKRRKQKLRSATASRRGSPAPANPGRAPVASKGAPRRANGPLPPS
Sequence of Cyclin-dependent kinase 19 (Homo sapiens) (Q9BWU1 whole entry): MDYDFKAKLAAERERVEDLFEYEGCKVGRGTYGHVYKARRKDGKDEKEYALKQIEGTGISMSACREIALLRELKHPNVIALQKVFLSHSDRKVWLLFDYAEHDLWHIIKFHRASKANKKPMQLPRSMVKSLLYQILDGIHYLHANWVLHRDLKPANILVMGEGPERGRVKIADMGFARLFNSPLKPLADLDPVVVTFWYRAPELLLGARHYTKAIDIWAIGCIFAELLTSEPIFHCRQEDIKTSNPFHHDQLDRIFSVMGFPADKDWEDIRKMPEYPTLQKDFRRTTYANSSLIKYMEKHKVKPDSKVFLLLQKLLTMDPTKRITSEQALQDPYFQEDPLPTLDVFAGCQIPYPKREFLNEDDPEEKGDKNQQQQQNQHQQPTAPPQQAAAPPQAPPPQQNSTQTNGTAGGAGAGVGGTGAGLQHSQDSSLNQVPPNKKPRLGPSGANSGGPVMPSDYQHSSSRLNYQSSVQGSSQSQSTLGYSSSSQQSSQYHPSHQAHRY
Sequence of Ribosomal protein S6 kinase alpha-3 (P51812 whole entry): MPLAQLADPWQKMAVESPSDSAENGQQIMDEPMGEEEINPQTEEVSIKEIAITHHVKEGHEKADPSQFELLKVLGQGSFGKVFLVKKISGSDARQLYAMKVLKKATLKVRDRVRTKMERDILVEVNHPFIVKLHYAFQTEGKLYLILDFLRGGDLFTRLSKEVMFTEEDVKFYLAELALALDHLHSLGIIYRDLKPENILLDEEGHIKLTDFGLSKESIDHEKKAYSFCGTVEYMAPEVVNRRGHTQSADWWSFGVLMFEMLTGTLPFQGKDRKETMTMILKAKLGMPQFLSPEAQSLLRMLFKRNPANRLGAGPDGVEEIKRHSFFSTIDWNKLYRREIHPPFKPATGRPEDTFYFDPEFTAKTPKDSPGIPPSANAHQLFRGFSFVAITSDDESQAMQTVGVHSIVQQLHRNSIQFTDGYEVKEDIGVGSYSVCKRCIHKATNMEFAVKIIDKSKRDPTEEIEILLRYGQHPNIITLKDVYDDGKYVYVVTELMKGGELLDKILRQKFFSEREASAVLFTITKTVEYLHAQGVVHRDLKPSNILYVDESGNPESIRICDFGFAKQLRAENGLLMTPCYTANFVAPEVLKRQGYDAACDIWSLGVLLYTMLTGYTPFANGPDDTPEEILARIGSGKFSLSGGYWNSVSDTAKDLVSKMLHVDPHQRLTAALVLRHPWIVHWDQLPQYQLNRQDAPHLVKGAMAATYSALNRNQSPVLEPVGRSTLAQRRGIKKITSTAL
Sequence of LIM domain kinase 1 (Homo sapiens) (P53667 whole entry, looked up, the tested form may be a part): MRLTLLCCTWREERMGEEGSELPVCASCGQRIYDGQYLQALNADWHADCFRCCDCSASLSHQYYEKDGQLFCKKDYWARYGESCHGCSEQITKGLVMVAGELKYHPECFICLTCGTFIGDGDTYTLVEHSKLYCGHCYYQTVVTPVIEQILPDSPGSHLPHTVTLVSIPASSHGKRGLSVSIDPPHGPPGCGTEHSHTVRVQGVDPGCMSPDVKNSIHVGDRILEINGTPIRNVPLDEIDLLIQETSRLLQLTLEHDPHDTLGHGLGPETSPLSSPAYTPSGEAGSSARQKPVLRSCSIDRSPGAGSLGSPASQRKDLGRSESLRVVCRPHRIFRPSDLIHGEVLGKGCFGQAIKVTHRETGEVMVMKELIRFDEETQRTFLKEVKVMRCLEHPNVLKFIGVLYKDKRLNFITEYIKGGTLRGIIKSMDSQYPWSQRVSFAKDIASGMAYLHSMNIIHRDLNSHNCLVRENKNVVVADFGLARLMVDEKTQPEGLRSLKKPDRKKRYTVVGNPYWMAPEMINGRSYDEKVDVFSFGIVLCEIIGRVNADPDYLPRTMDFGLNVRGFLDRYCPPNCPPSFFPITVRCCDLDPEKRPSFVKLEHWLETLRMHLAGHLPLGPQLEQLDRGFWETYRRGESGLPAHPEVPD

Cc1cnc(Nc2ccc(F)cc2Cl)nc1-c1c[nH]c(C(=O)N[C@H](CO)c2cccc(Cl)c2)c1 was tested, and the % of inhibition [1] was 3%.
Work on COc1cc(Nc2nc(C)cc(-c3cnn4nc(OC)ccc34)n2)cc(C(F)(F)F)c1 yielded a % of control [2] of 91%.
CC[C@@H]1[C@H](F)C(=O)N[C@@H]1COc1nccc2cc(C(N)=O)c(OC)cc12 [ZIMLOVISERTIB] was tested, and the % of inhibition [3] was -10.7%.
Work on CCC(=O)N1CC[C@H](Nc2ncnc3c2CN(c2cnc(OC)c(C(F)(F)F)c2)CC3)C1 [LENIOLISIB] yielded an IC50 [4] greater than 9.1 µM.
Work on Cn1cc(-n2cnc3c(NCc4nc5cc(Cl)c(Cl)cc5[nH]4)nc(N4CCOCC4)nc32)cn1 yielded a % of control [5] of 1.16%.
Work on CCN(CC)CCCCNc1ncc2cc(-c3cc(OC)cc(OC)c3)c(NC(=O)NC(C)(C)C)nc2n1 yielded a % of control [6] of 100%.
Work on COCC(=O)NC/C=C/c1ccc2ncnc(Nc3ccc(Oc4ccc(C)nc4)c(C)c3)c2c1 [CP-724714] yielded a % of control [7] of 100%.
C=CC(=O)Nc1cccc(C(=O)Nc2ccc(Nc3cc(-c4[nH]c(SC)nc4C)ccn3)cc2)c1 showed a % of control ([8]; at 1 µM) of 97% and a % of control ([8]; at 5 µM) of 83%.
Compound CCC(=O)N1CCN(c2ccc(-n3c(=O)ccc4cnc5ccc(-c6cnc7ccccc7c6)cc5c43)cc2C(F)(F)F)CC1 has a % of control [9] of 100%.
Compound Cc1ccc(-c2ccc3c(ccc4sc5c(c43)NC[C@@H](C)NC5=O)n2)cn1 has a % of inhibition [10] of -5% and a % of inhibition [11] of -2%.
Compound C=CC(=O)Nc1cc(-n2c(=O)ccc3cnc4ccc(-c5ccc(NS(C)(=O)=O)cc5)cc4c32)ccc1C has a % of control ([12]; at 1 µM) of 100% and a % of control ([12]; at 10 µM) of 92%.
With N#Cc1cccc(-c2c[nH]c3ncnc(N4CCOCC4)c23)c1 the % of inhibition [13] was 2%.
Compound O[C@H]1CC[C@H](Nc2ncc3nc(Nc4c(F)cc(F)cc4F)n([C@H]4CCOC4)c3n2)CC1 has a % of control [14] of 100% and a % of control [15] of 17%.
Work on O=C(NOC[C@H](O)CO)c1ccc(F)c(F)c1Nc1ccc(I)cc1F yielded a % of control [16] of 90%.
